Source: patent US10947242B2, “[1,2,4]triazolo[1,5and#8208;A]pyrimidine compounds as PDE2 inhibitors” (Janssen Pharmaceutica NV, priority 2016, dated 2021)
Like-named read-outs stand apart in the source and are kept apart here.

How the values were obtained:
Type in all cases: biochemical
[1] = biological target: T1, Human recombinant PDE10A (hPDE10A) (Homo sapiens, UniProt Q9Y233); assay: In vitro assay PDE10A, human clone (SPA, 3H-cAMP hydrolysis); details: human clone (h), default; for Emax: read-out: hPDE10A2 Emax; for IC50: read-out: hPDE10A2 pIC50 (converted)
T1 construct: His tag (inferred from metal chelate purification); made in house; host or cells: Sf9 insect cells (baculovirus)
T1 sequence (Q9Y233 267-1055): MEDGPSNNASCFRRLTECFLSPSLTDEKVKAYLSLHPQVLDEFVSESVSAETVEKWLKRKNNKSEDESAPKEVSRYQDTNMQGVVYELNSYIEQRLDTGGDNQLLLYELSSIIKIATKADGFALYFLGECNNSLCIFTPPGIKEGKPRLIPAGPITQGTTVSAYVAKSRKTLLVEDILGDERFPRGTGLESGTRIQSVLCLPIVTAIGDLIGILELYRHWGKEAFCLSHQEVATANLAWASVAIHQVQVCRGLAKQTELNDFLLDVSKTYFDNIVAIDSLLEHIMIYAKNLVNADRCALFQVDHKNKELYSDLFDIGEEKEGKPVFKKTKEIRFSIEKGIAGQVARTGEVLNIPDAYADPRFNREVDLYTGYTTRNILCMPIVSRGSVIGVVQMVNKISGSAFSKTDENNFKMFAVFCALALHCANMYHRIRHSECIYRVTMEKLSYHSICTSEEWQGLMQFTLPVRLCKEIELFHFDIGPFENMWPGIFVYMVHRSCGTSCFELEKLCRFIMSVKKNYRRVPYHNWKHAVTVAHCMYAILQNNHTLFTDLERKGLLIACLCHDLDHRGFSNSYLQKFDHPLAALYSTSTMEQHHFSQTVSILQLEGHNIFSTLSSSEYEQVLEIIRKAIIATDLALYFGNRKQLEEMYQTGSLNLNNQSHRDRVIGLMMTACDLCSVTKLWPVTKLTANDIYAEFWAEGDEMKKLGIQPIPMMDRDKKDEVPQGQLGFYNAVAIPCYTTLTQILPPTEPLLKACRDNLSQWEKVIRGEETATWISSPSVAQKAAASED
Procedure: Rat recombinant PDE10A (rPDE10A2) was expressed in Sf9 cells using a recombinant rPDE10A baculovirus construct. […] Tested compounds were dissolved and diluted in 100% DMSO to a concentration 100 fold of the final concentration in the assay. Human recombinant PDE10A ([…]) was expressed in Sf9 cells using a recombinant hPDE10A baculovirus that was made and amplified in house. […] Compound dilutions (0.4 μl) were added in 384 well plates to 20 μl of incubation buffer (50 mM Tris pH 7.8, 8.3 mM MgCl2, 1.7 mM EGTA). 10 μl of rPDE10A or hPDE10A enzyme in incubation buffer was added and the reaction was started by addition of 10 μl substrate to a final concentration of 60 nM cAMP and 0.008 μCi ^3H-cAMP. The reaction was incubated for 60 minutes at room temperature. […] After sedimentation of the beads during 30 minutes the radioactivity was measured in a Perkin Elmer Topcount scintillation counter and results were expressed as cpm. For blanc values the enzyme was omitted from the reaction and replaced by incubation buffer. Control values were obtained by addition of a final concentration of 1% DMSO instead of compound.

[2] = biological target: T2, Human recombinant PDE3A (hPDE3A) (Homo sapiens, UniProt Q14432); assay: In vitro assay PDE3A (SPA, 3H-cAMP hydrolysis); details: for IC50: hPDE3B pIC50, read-out: pIC50 (converted); for Emax: read-out: hPDE3B Emax, read-out: Emax;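 for all read-outs here: the method names PDE3A and the table heading PDE3B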
T2 construct: purchased Scottish Biomedical; host or cells: Sf9 insect cells
T2 sequence (Q14432 whole entry): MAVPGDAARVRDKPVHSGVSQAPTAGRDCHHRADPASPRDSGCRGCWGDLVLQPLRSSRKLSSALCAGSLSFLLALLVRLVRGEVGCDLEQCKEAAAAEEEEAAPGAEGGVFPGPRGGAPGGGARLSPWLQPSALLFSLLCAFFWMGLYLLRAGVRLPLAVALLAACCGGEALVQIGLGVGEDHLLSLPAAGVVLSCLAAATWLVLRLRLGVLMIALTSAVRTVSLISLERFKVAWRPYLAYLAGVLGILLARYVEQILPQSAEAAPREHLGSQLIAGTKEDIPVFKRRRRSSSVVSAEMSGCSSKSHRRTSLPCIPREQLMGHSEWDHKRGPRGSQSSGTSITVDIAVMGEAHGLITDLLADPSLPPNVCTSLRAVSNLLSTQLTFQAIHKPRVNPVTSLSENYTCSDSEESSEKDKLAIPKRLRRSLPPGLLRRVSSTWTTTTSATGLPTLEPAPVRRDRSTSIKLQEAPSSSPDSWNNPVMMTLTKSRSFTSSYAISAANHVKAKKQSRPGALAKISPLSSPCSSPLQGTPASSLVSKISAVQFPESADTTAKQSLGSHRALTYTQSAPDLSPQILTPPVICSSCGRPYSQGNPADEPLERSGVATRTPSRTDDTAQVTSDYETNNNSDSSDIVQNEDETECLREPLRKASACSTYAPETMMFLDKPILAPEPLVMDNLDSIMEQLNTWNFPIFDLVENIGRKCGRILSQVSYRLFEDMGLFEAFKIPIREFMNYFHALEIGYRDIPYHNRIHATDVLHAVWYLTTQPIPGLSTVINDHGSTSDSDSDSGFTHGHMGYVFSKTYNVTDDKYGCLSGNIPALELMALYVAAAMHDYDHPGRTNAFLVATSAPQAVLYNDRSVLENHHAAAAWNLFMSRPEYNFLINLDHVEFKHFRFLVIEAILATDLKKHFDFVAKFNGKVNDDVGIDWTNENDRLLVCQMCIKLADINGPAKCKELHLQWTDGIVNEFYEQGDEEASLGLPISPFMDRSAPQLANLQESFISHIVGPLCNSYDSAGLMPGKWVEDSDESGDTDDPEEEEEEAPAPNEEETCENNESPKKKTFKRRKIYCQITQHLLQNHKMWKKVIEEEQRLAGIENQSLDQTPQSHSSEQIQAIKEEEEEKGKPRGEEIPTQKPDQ
Procedure: Human recombinant PDE3A (hPDE3A) was supplied as a partially purified insect cell lysate by Scottish Biomedical, it was cloned from human brain and expressed in Sf9 cells. Tested compounds were dissolved and diluted in 100% DMSO to a concentration 100 fold of the final concentration in the assay. Compound dilutions (0.4 μl) were added in 384 well plates to 20 μl of incubation buffer (50 mM Tris pH 7.8, 8.3 mM MgCl2, 1.7 mM EGTA). 10 μl of hPDE3A enzyme in incubation buffer was added and the reaction was started by addition of 10 μl substrate to a final concentration of 0.4 μM cAMP and 2.4 μCi/ml [^3H]-cAMP. The reaction was incubated for 60 min at room temperature. […] After sedimentation of the beads during 30 min the radioactivity was measured in a Perkin Elmer Topcount scintillation counter and results were expressed as cpm. For blanc values the enzyme was omitted from the reaction and replaced by incubation buffer. Control values were obtained by addition of a final concentration of 1% DMSO instead of compound.

[3] = biological target: T3, Human recombinant PDE2A (hPDE2A) (Homo sapiens, UniProt O00408); assay: In vitro assay PDE2A (SPA, 3H-cGMP hydrolysis); details: for IC50: read-out: hPDE2A pIC50 (converted); for Emax: read-out: hPDE2A Emax
T3 construct: His tag (inferred from metal chelate purification); made in house; host or cells: Sf9 insect cells (baculovirus)
T3 sequence (O00408 whole entry): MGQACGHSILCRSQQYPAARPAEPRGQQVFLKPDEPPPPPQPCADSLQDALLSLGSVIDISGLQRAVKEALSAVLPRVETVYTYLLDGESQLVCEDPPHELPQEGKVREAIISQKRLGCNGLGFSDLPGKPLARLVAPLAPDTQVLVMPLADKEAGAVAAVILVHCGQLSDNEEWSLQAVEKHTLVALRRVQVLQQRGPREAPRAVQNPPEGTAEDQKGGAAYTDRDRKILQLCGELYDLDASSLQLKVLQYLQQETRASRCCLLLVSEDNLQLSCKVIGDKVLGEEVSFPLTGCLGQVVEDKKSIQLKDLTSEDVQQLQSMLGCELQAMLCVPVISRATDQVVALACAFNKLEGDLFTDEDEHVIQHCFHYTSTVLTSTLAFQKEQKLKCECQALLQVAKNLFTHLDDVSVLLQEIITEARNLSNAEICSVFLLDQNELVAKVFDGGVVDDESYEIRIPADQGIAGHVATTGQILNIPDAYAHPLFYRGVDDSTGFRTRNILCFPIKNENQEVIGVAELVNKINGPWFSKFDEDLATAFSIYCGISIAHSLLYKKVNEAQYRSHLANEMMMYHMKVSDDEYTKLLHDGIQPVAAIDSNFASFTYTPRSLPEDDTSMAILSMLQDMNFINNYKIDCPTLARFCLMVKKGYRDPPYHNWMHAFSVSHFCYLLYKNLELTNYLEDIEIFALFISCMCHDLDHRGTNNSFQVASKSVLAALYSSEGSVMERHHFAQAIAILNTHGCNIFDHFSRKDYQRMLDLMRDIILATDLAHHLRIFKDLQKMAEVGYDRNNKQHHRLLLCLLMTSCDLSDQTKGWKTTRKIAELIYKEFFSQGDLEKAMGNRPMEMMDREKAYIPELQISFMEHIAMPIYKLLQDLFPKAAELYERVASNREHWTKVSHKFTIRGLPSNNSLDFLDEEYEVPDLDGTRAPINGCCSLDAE

[4] = human recombinant PDE2A, 10 μM cGMP substrate

Row | Structure (SMILES) | Emax [1] [%] | IC50 [1] [nM] | IC50 [2] [nM] | Emax [2] [%] | IC50 [3, 4] [nM] | Emax ([3]; human recombinant PDE2A) [%] | Emax [3] [%] | IC50 [3] [nM]
1 | C[C@@H]1CCN(C(=O)c2ccc(F)c(C3CC3)c2)C[C@H]1c1cc(C(F)F)nc2ncnn12 [Compound 135] | 97 | 191 | 2630 | 81 | 3.31 | 100 | 100 | 3.31
2 | C[C@@H]1CCN(C(=O)c2ccc(C(C)(C)C)o2)C[C@H]1c1cc(C(F)F)nc2ncnn12 [Compound 136] | 97 | 288 | > 10000 | 51 | 3.39 | 101 | 101 | 3.39
3 | Cc1c(C(=O)N2[C@H]3CC[C@@H]2[C@H](c2cc(C(F)F)nc4ncnn24)CC3)oc2ccccc12 [Compound 140] | 83 | 3090 | 8910 | 57 | 29.5 | 100 | 100 | 29.5
4 | Cc1ccc(C(=O)N2CC[C@@H](C)[C@H](c3cc(C(F)F)nc4ncnn34)C2)c(C)n1 [Compound 143] | 77 | 2400 | 7940 | 58 | 33.1 | 97 | 97 | 33.1
5 | CC(C)Oc1cc(C(=O)N2CC[C@@H](C)[C@H](c3cc(C(F)F)nc4ncnn34)C2)cc(C(C)C)c1 [Compound 144] | 96 | 468 | 2400 | 86 | 34.7 | 100 | 100 | 34.7
6 | Cc1c(C(=O)N2CC[C@@H](C)[C@H](c3cc(C(F)F)nc4ncnn34)C2)ccc2c1OCO2 [Compound 145] | 93 | 646 | 2040 | 86 | 36.3 | 99 | 99 | 36.3
7 | C[C@@H]1CCN(C(=O)c2cnc3ccccc3c2O)C[C@H]1c1cc(C(F)F)nc2ncnn12 [Compound 146] | 76 | 3310 | 1660 | 85 | – | – | 100 | 37.2
8 | Cc1csc(C(=O)N2CC[C@@H](C)[C@H](c3cc(C(F)F)nc4ncnn34)C2)c1Cl [Compound 147] | 90 | 871 | 2240 | 81 | 38 | 100 | 100 | 38
9 | C[C@@H]1CCN(C(=O)c2cccc(C(F)(F)F)c2F)C[C@H]1c1cc(C(F)F)nc2ncnn12 [Compound 148] | 89 | 912 | 5620 | 67 | 38.9 | 101 | 101 | 38.9
10 | C[C@@H]1CCN(C(=O)c2c(F)cccc2F)C[C@H]1c1cc(C(F)F)nc2ncnn12 [Compound 149] | 83 | 1820 | 5130 | 66 | 38.9 | 99 | 99 | 38.9
11 | Cc1nc2ccncc2cc1C(=O)N1CC[C@@H](C)[C@H](c2cc(C(F)F)nc3ncnn23)C1 [Compound 151] | 85 | 1380 | > 10000 | 11 | – | – | 100 | 40.7
12 | Cc1cc(C(=O)N2CC[C@@H](C)[C@H](c3cc(C(F)F)nc4ncnn34)C2)on1 [Compound 152] | 80 | 2040 | > 10000 | 30 | 41.7 | 99 | 99 | 41.7
13 | Cc1ncoc1C(=O)N1CC[C@@H](C)[C@H](c2cc(C(F)F)nc3ncnn23)C1 [Compound 156] | 81 | 2000 | > 10000 | 19 | 58.9 | 100 | 100 | 58.9
14 | Cc1cnoc1C(=O)N1CC[C@@H](C)[C@H](c2cc(C(F)F)nc3ncnn23)C1 [Compound 160] | 88 | 1020 | > 10000 | 34 | 72.4 | 99 | 99 | 72.4
15 | Cc1nc(C(=O)N2CC[C@@H](C)[C@H](c3cc(C(F)F)nc4ncnn34)C2)c(C(F)(F)F)o1 [Compound 161] | 74 | 3090 | > 10000 | 11 | 74.1 | 98 | 98 | 74.1

Continued, values first:

Row | Emax [1] [%] | IC50 [1] [nM] | IC50 [2] [nM] | Emax [2] [%] | IC50 [3, 4] [nM] | Emax ([3]; human recombinant PDE2A) [%] | Emax [3] [%] | IC50 [3] [nM] | Structure (SMILES)
16 | 81 | 2040 | > 10000 | 12 | 29.5 | 100 | 100 | 29.5 | Cc1cc(C(=O)N2CC[C@@H](C)[C@H](c3cc(C(F)F)nc4ncnn34)C2)nc(C)n1 [Compound 141]
17 | 79 | 2570 | > 10000 | 35 | 30.2 | 100 | 100 | 30.2 | C[C@@H]1CCN(C(=O)c2ccncc2N)C[C@H]1c1cc(C(F)F)nc2ncnn12 [Compound 142]
18 | 72 | 3550 | > 10000 | 22 | 39.8 | 100 | 100 | 39.8 | C[C@@H]1CCN(C(=O)c2cccnc2N)C[C@H]1c1cc(C(F)F)nc2ncnn12 [Compound 150]
19 | 89 | 1070 | 3090 | 76 | 43.7 | 100 | 100 | 43.7 | C[C@@H]1CCN(C(=O)c2ccc(Br)cn2)C[C@H]1c1cc(C(F)F)nc2ncnn12 [Compound 153]
20 | 79 | 2750 | > 10000 | 50 | 51.3 | 100 | 100 | 51.3 | C[C@@H]1CCN(C(=O)c2ccc(Cl)cn2)C[C@H]1c1cc(C(F)F)nc2ncnn12 [Compound 154]
21 | 72 | 2950 | > 10000 | 37 | 53.7 | 98 | 98 | 53.7 | C[C@@H]1CCN(C(=O)c2ccncc2F)C[C@H]1c1cc(C(F)F)nc2ncnn12 [Compound 155]
22 | 75 | 2570 | > 10000 | 33 | 60.3 | 99 | 99 | 60.3 | Cc1cc(C(=O)N2CC[C@@H](C)[C@H](c3cc(C(F)F)nc4ncnn34)C2)no1 [Compound 157]
23 | 78 | 2140 | > 10000 | 19 | 64.6 | 100 | 100 | 64.6 | C[C@@H]1CCN(C(=O)c2csc(N)n2)C[C@H]1c1cc(C(F)F)nc2ncnn12 [Compound 158]
24 | 75 | 3240 | > 10000 | 42 | 72.4 | 100 | 100 | 72.4 | Cc1c(C(=O)N2CC[C@@H](C)[C@H](c3cc(C(F)F)nc4ncnn34)C2)ccnc1Cl [Compound 159]
25 | 72 | 4270 | > 10000 | 26 | 74.1 | 97 | 97 | 74.1 | C[C@@H]1CCN(C(=O)c2cccc(N)n2)C[C@H]1c1cc(C(F)F)nc2ncnn12 [Compound 162]
26 | 74 | 3240 | > 10000 | 12 | 89.1 | 98 | 98 | 89.1 | C[C@@H]1CCN(C(=O)c2cc(C#N)ccn2)C[C@H]1c1cc(C(F)F)nc2ncnn12 [Compound 163]
